# Source: US12691100B2, “NMT inhibitor treatment of a senescence-associated disease or disorder of the liver” (Imperial College Innovations Limited, priority 2020, dated 2026)
# What was measured:
# [1] = Blood markers (Vetscan) in a separate cohort of old mice; assay type: in vivo, female C57/BL6 mice; details: ~19 mo females, before 4th round, Compound 2 10 mg/kg, Compound 3 25 mg/kg, versus vehicle
# Method: Blood was collected prior to each round of injection for physiological assessments. Mice were allowed to rest 4 weeks prior to being culled and organs collected for freezing in OCT, paraffin embedding and snap-freezing for RNA extraction.
# For analysis of immune cell composition in whole blood, tail-vein blood was collected 2 days after last treatment. Whole blood was diluted in saline to a volume of […] and ran on a Sysmex XE2100 automated cell counter. Blood glucose levels were determined by collecting whole-blood from tail vein into heparinised tubes (Abraxis), 120-140 μL of whole-blood to be loaded onto a comprehensive diagnostic profile reagent rotor (Abraxis) and run on a VetScan VS2 Chemistry Analyzer (Abraxis: 500-7123).
# Further experiments were performed on a separate cohort of old mice. […] This regimen was repeated 4 more times and blood was collected for Vetscan measurements prior to the 4th round of treatment (FIG. 19). At that stage, ~19 mo females presented elevated levels of ALT, amylase and glucose in blood when compared with young mice (FIG. 20A).
# [2] = tested on: senescent preneoplastic hepatocytes; experiment: Model of liver cancer initiation (Nras G12V by hydrodynamic tail vein injection); assay type: in vivo, C57BL/6J mice; details: 25 mg/kg i.p. daily for 4 days from day 5 after HDTVI; FIGS. 16C-E
# Method: All mice were purchased from Charles River UK, Ltd. For Hydrodynamic tail vein injection (HDTVI) experiments female C57BL/6J mice aged 5-6 weeks were given 20 μg of Nras^G12V & gaussia luciferase (Gluc) expressing plasmid and 5 μg of SB13 transposase-expressing plasmid. Plasmids were prepared using GeneElute HP Endotoxin-free Plasmid Maxiprep kit (Sigma). Purified plasmids were diluted in sterile-filtered PBS to a total volume of 10% mouse body weight and injected into mouse lateral tail vein within a 10 s window. 4 days after HDTVI, mice were bled to assess presence of gaussia luciferase signal in the blood serum and used to randomize/equalize groupings for vehicle and drug treated groups. […]
# Immunohistochemical staining—Slides were deparaffinised by washing slides twice in Histoclear™ for 5 min each, followed by 5 min washes in decreasing concentrations of ethanol with 100%, 75%, 50% & 25% ethanol washes before a final wash 5 min in dH2O. […] Signal development was stopped when visible positive cells could be detected on a microscope, by washing slides in dH2O. […]
# Slide image acquisition & analysis—Slides were acquired using a 20× brightfield objective on a Zeiss Axio Scan Z.1 slide scanner and analysis performed using QuPath version 0.2.0-m9 using in built positive cell detection tool to segment Haematoxylin stained nuclei and quantify mean intensity of DAB. […]
# [3] = tested on: HCT116 colon cancer cells; experiment: Senolytic survival assay, chemotherapy-induced senescence in cancer cells; assay type: cell-based, human; details: second experiment: doxorubicin 100 nM, etoposide 2 μM or cisplatin 100 μM, or DMSO; replenished after 72 h, 48 h more; FIGS. 7A-C
# Method: IMR90 cells were used to generate inducible ER:RAS (hereinafter iRAS) cells to model Oncogene induced senescence (OIS), through retroviral infection of pLNC-ER:RAS-neo into IMR90 cells followed by selection with Neomycin. IMR90 cells containing the pLNC-ER:RAS plasmid backbone pLXSN were infected in parallel to assess leakiness in the pLNC-ER:RAS system. Treatment with 100 nM 4OHT (Sigma, in DMSO) was used to induce IMR90 ER:RAS cells to undergo oncogene induced senescence (OIS). Therapy induced senescence (TIS) was induced in IMR90 cells by treatment with 33 μM (50 ug/ml) bleomycin sulphate (Generon, HY-17565) for 24 hours, 20 μM palbociclib (Selleckchem, S1116) for 7 days or 100 nM doxorubicin (Cayman chemical, 15007) for 7 days. Senescence was induced in SK-HEP-1 cells by treatment with 2 μM etoposide (Sigma-Aldrich, E1383) for 7 days (FIGS. 4A-C). HCT-116 senescence was induced by 250 nM treatment with doxorubicin (Cayman chemical, 15007) for 48 hours followed by 5 days culture in media without chemotherapy (FIG. 5), or by treatment with 100 nM doxorubicin, 2 μM etoposide or 100 μM cisplatin for 3 days followed by 4 days culture in media without chemotherapy (FIGS. 6A-7C). Senescence was induced in MCF7 by 200 nM treatment with doxorubicin for 7 days, 2 μM etoposide for 7 days or 10 μM cisplatin for 7 days (FIGS. 8A-9C).
# High-throughput microscopy survival assay—To assess senolytic effect of drugs, cells were cultured for 7 days, culture media was changed to DM0.5 media and drugs in DMSO were added (<5% v/v final concentration), drugs were replenished after 3 days if assay length was longer than 72 h. Wells were fixed in 4% PFA for 1 hour at day 10 to 14, washed 3 times with PBS and then stained with 1 μg/mL DAPI (w/v, PBS) for 10 minutes. Wells were then washed 3 times with PBS. Optionally plates could be stored at 4° C. for up to 2 weeks and DAPI stained. Image acquisition of DAPI stained cells was performed on an automated InCell Analyser 2000 (GE Healthcare®) and high-content analysis on the InCell Investigator 2.7.3 software used to quantify number of DAPI positive cells per well. […] Survival was measured as cell counts relative to DMSO treated quiescent or senescent cells.
# In a first experiment, HCT116 colon cancer cells were treated with doxorubicin (to induce senescence), or DMSO (as a control). […] 7 days after adding the drugs with replenishment after 3 days, cells were fixed, imaged and cells numbers were quantified using high throughput microscopy. […]
# In a second experiment, HCT116 were treated with doxorubicin, etoposide or cisplatin (to induce senescence) or DMSO (as a control). 7 days after treatment, BrdU incorporation (to assess cell division), SA-β-Galactosidase activity and p21^CIP1 expression (as markers of senescence) were analysed. […]
structure (smiles),measurement,setting,value
"Cc1c(CCOc2cc(Cl)ccc2-c2ccc3ncc(CCN)n3c2)c(C(=O)N(C)C)nn1C [Compound 3, 4-(2-{2-[3-(2-aminoethyl)imidazo[1,2-a]pyridin-6-yl]-5-chlorophenoxy}ethyl)-N,N,1,5-tetramethyl-1H-pyrazole-3-carboxamide]",ALT in blood,[1]; FIG. 20A,lower level
same,Amylase in blood,[1]; FIG. 20B,lower level
same,Glucose in blood,[1]; FIG. 20C,lower level
same,Number of senescent preneoplastic hepatocytes,[2],reduces the number senescent preneoplastic hepatocytes
same,"Survival, senescent versus control cells",[3],"preferentially kill cancer cells that undergo senescence after being treated with doxorubicin, etoposide or cisplatin"
